Target: eosinophils purified from human peripheral blood
Assay: Eosinophil chemotaxis assay (eotaxin-induced)
Assay type: cell-based
Details: functional pKi; inhibition of human eosinophil chemotaxis to eotaxin (EC80 concentration)
Procedure: (b) Eosinophil Chemotaxis Assay.
Compounds were evaluated for their inhibitory effect on eosinophil chemotaxis. Eosinophils were purified from human peripheral blood by standard CD16 cell depletion using a Miltenyi cell separation column and a magnetic Super Macs magnet as previously described (Motegi & Kita, 1998; J. Immunology. 161:4340-6). Cells were re-suspended in RPMI 1640/10% FCS solution and incubated with calcein-AM (Molecular Probes) at 37° C. for 30 mins. Following incubation, the eosinophils were centrifuged at 400 g for 5 min and re-suspended in RPMI/FCS at 2.2 million/ml. Cells were then incubated in the presence of increasing concentration of compounds (1 pM to 30 μM) at 37° C. for 30 mins. For control responses cells were incubated with RPMI/FCS only. The agonist eotaxin (an EC80 concentration) was added to the lower chamber of a 96 well chemotaxis plate (5 μm filter: Receptor Technologies). Eosinophils (50 μl of 2 million/ml cells) were added to the top chamber of the filter plate and incubated at 37° C. for 45 mins. Cells remaining on top of the chemotaxis filter were removed and the number of eosinophils which had migrated were quantified by reading the plate on a fluorescent plate reader. Inhibition curves for the effect of compounds on eosinophil chemotaxis were analysed by fitting the data with a four parameter logistic equation. […]

Row | SMILES | fpKi
1 | CNC(=O)c1csc(CNC(=O)NC[C@H]2CN(Cc3ccc(Cl)c(Cl)c3)CCO2)c1 [Example 116, 5-{3-[(2S)-4-(3,4-Dichlorobenzyl)-morpholin-2-ylmethyl]-ureidomethyl}-thiophene-3-carboxylic acid methylamide] | 9.8
2 | O=C(NCc1nnn(CC2CC2)n1)NC[C@H]1CN(Cc2ccc(Cl)c(Cl)c2)CCO1 [Example 97, 1-(2-Cyclopropylmethyl-2H-tetrazol-5-ylmethyl)-3-[(2S)-4-(3,4-dichlorobenzyl)morpholin-2-ylmethyl]-urea] | 9.2
